# Source: patent US7635722B1, “Chemical induced intracellular hyperthermia” (priority 1998, dated 2009)
# What was measured:
# Normal rat liver = assay: reactive oxygen species formation in rat liver infused with DNP; settings: upon cessation of uncoupling (FIG. 9)
# HIV = assay: DNP hyperthermia, HIV disease (Example 2); assay type: in vivo, human
# Description: (§1) Pretreatment protocol: all medications were stopped 2 weeks prior to treatment. The patient refused taking diazepam, placement of a Foley catheter and oxygen face mask. They dressed themself into a dry cold water immersion suit (Stearns, ISS-590I, Universal Adult) designed to prevent heat loss and modified for easy placement of physiologic monitors. Equipment for measurement of heart rate, temperature, carbon dioxide production and Kcal of heat produced were conducted as outlined in Example 1. An oral breathing tube was used to measure V02 from room air. Urine output was measured when the patient voluntarily urinated through a “Texas” catheter (superficial condom tightly fitted around the head of the penis with tubing connected to urine collection bag). The patient was informed that hyperthermia would be administered as tolerated by their stamina and monitored clinical parameters, not to exceed 5 hours, on a daily or every other day basis, for a total of 5 sessions.
# Treatment procedure: Baseline reading for 5 minutes established an average V02 of 300 cc/min. An initial dose of 2 mg/kg of DNP was administered over a 2 minute period. V02 increased and stabilized at 15 minutes at 340-380 cc/min. An additional 2 mg/kg DNP infusion was given, the V02 increased and stabilized at 610-630 cc/min. […] Norepinephrine bitartrate (Levophed) was given IV drip at a dose of 1 microgram/min. and adjusted to maintain blood pressure at 130/80. Approximately 1 minute after initiating the vasopressor, heart rate increased from 90 to 100 and V02 to 0.85 liters/min. […] V02 was maintained at 1.0 liters/min. by lowering or increasing the dose of norepinephrine. An additional infusion of 1 mg/kg DNP was given at hour 4 to correct a dropping V02. On occasions when the core temperature increased above 41.6° C., a lower extremity was exposed for evaporative heat loss. […] The protocol was repeated consecutively for 5 days without the additional use of vasopressors.
# Kaposi's sarcoma = assay: DNP hyperthermia, Kaposi's sarcoma lesions (Example 2); assay type: in vivo, human
# Description: as §1
# (§2) Treatment procedure: Baseline reading for 5 minutes established an average V02 of 300 cc/min. An initial dose of 2 mg/kg of DNP was administered over a 2 minute period. V02 increased and stabilized at 15 minutes at 340-380 cc/min. An additional 2 mg/kg DNP infusion was given, the V02 increased and stabilized at 610-630 cc/min. […]
# candida = assay: DNP hyperthermia, oral candidiasis (Example 2); assay type: in vivo, human
# Description: as §1, §2
# Borrelia burgdorferi = assay: DNP hyperthermia, Lyme disease (Example 3); assay type: in vivo, human
# Description: Pretreatment protocol: the evening prior treatment the patient was instructed not to eat and dress in cotton undergarments. Approximately 4 hours prior to treatment 2 mg alprazolam was administered by mouth. The patient dressed themself into a dry cold water immersion suit (Stearns, previously described) with headgear. Monitoring sensors, including EKG display, IV fluids and Foley catheter were attached and the suit was zipped closed. The patient opted for oxygen supplementation. The modified face mask was connected to the TEEM 100 metabolic Analysis System for V02 measurements. Data was recorded as previously described.
# The patient was infused with 1 mg/kg DNP over a 2 minute period. V02 increased and stabilized at 250 cc/min, 5.3 cc/kg/min. A second dose of 2.0 mg/kg was infused over a 2 minute period and the V02 peaked at 400 cc/min, 8.8 cc 02/kg/min. An additional dose of 1.0 mg/kg DNP was given 30 minutes after the second dose. The V02 increased and reached a stable plateau at 600 cc/min, […]. […] V02 increased back to 680-710 cc/min. […] The patient periodically requested the V02 monitoring mask be removed during the hyperthermia treatment period. They were accommodated with removal of the mask on two occasions for periods not exceeding 10 minutes. […] The treatment was terminated 4 hours and 10 minutes after the initial dose of DNP. Twenty five minutes after the patient was removed from the neoprene survival suit, the rectal core temperature dropped to 38.5° C. Normothermia was achieved approximately 60 minutes after cessation of therapy and removal from the survival suit. Approximately 6.5 to 7 hours after treatment the patient experienced chills, an increase in oral temperature to 38.7 degrees centigrade and malaise. IV fluids and the dopamine drip at 2 mcg/kg/min were restarted and the patient was closely observed. Their symptoms subsided over 3 hours and by the next day they felt active and hungry. It was surmised they may have experienced a delayed Jarisch-Herxheimer reaction. The patients monitored treatment flow chart is FIG. 18.
# hepatic ischemic injury = hepatic ischemic injury by Pringle's maneuver after DNP pretreatment; assay type: in vivo; settings: Pringle's maneuver (FIG. 22)
# Excerpt: (§3) This method of DNP induced preconditioning could be used to decrease intimal thickening and restenosis after angioplasty, improve ischemia/reperfusion injury in organ and tissue transplantation, and improve surgical outcome of procedures that require temporary or prolonged occlusion of arterial blood flow.
# musculocutaneous flap = musculocutaneous flap skin survival after DNP; assay type: in vivo; settings: after induction of heat shock proteins by DNP (FIG. 23)
# Excerpt: as §3
# heat shock protein = assay: DNP induction of autologous heat shock proteins; assay type: in vivo, human; settings: after cessation of DNP
# Description: DNP would be given orally at doses to increase the V02 from 1.5 to 5 times above normal per day for a period of 2-6 days or, as an infusion at doses that would increase V02 and core body temperatures no greater than 39° C. for periods of 5 to 6 hours or, intravenous doses of DNP alone, with vasopressors, or other short acting metabolic stimulators, that would increase V02 to equivalent core temperatures of 40-41° C. for periods of 15-30 minutes. Within 8-48 hours after cessation of DNP, the patient would have maximum heat shock protein production. Such DNP induced stress would improve clinical outcome by induction of cellular heat shock protein synthesis with protection of the patient's, organs, tissues and cells from subsequent ischemic surgical or traumatic procedures.
# breast lesion = assay: DNP enhanced infrared imaging, breast carcinoma (Example 8); assay type: in vivo, human
# Description: Prediagnostic protocol: the patient was disrobed to the waist and sat with their hands interlocked over their head for a five minute equilibration period in a draft free, thermally controlled room—kept between 18° C. and 20° C. […] A baseline of 4 images consisting of an anterior, undersurface and 2 lateral views of each breast were generated by an integrated infrared imaging station consisting of a scanning mirror optical system containing a mercury-cadmium-telluride detector (Bales Scientific, CA). […] Images were stored on retrievable laser discs.
# Diagnostic treatment protocol: after the above baseline studies were performed, the patient was given an initial intravenous dose of 1 mg/kg DNP and observed for a period of 20 minutes. An additional 2 mg/kg of DNP was then administered and 30 minutes thereafter, they were taken to the thermally controlled room for repeat DNP-enhanced infrared imaging. […] Repeat infrared images were then obtained under the exact protocol used for obtaining baseline studies.
smiles,measurement,setting,value
"O=[N+]([O-])c1ccc(O)c([N+](=O)[O-])c1 [DNP, 2,4-dinitrophenol]",formation of reactive oxygen species,Normal rat liver,threefold
same,lymphadenopathy,HIV; 2 weeks post-treatment,resolved
same,HIV RNA,"HIV; 4, 6 and 12 weeks post-treatment",non-detectable
same,CD4+ T cell lymphocyte counts,"HIV; by week 4, stable at week 6 and 12, pretreatment 250/mm^3",380-420 cells/mm^3
same,viral load,"HIV; immediately after treatment day 5, pretreatment 400,000 copies/ml","50,000 HIV-RNA copies/ml"
same,anal tumor diminished in size,Kaposi's sarcoma; 5th and last day of therapy,approximately 60%
same,oral and anal KS lesions,Kaposi's sarcoma; 30 days post-treatment,complete regression of both oral and anal KS lesions
same,oral candidiasis,candida; 3rd day of therapy,no evidence of oral candidiasis
same,improvement of oral candidiasis,candida; immediately after the first treatment,50%
same,"repeat spinal fluid analysis, Borrelia DNA by PCR",Borrelia burgdorferi; after treatment,no detectable Borrelia DNA by PCR
same,spinal fluid culture on Barbour-Stoenner-Kelly II medium,Borrelia burgdorferi; three months later,negative
same,EKG,Borrelia burgdorferi; two months follow-up,resolution of their first degree A-V block
same,symptoms,Borrelia burgdorferi; two months follow-up,"arthralgias, myalgias, malaise, fatigue and memory deficits have disappeared"
same,effect of DNP pretreatment before hepatic ischemic injury,hepatic ischemic injury,protective effect
same,musculocutaneous flap skin survival,musculocutaneous flap,improved musculocutaneous flap skin survival
same,time to maximum heat shock protein production,heat shock protein,8 to 48 h
same,bilateral global breast temperature increase,breast lesion; DNP enhanced infrared imaging,approximately 0.5 °C
same,increase in temperature in the palpable right breast lesion,breast lesion; DNP enhanced infrared imaging,2.5 °C
same,increase in heat production above the DNP baseline increase,breast lesion; lesion versus global breast increase of 0.5° C.,5 fold
